According to patent US20050203059A1, “Methods and compositions for treatment of ischemia” (priority 2002, published 2005):

Test system: transient middle cerebral artery occlusion (MCAO) in SD rats
Test: Transient (90 min.) middle cerebral artery occlusion (MCAO) in SD rats
Assay type: in vivo, rat
Conditions: 90 min MCAO, 25 mg/kg intravenous bolus at occlusion, then 50 mg/kg subcutaneous repeatedly, histology at 3 days, FIG. 2
Text: 1. Transient focal cerebral ischemia: A rodent model of transient middle cerebral artery occlusion (MCA) occlusion was used to determine the effect of a representative GSK3 inhibitor compound of the invention, 6-[(2-{[6-(2,4-dichlorophenyl)-5-imidazolyl-2-pyridyl]amino}ethyl)amino]pyridine-3-carbonitrile (CT 99025) in the inhibition of ischemic damage due to stroke. Ischemia was induced using an occluding intraluminal suture model (M. A. Yenari et al., “Time-course and treatment response with SNX-111, an N-type calcium channel blocker, in a rodent model of focal cerebral ischemia using diffusion-weighted MRI,” Brain Res 739:3645 (1996)). Animals were anesthetized with 3% halothane (1-2% maintenance) via face mask. Depth of anesthesia was monitored every 15 minutes by checking toe pinch, and the maintenance halothane levels were adjusted accordingly. […] During the surgical procedure, the following parameters were monitored and maintained in the normal physiological range: mean arterial blood pressure (MABP, measured via a femoral artery catheter), respiratory rate, rectal temperature, heart rate, arterial blood gases, blood glucose, and hematocrit. […]
3. […] Regions without staining were delineated using a computer assisted image analysis program (MCID, St. Catherine's, Ottawa), and expressed as the percent injury of the ipsilateral hemisphere. […]

**Q.** “6-[(2-{[6-(2,4-dichlorophenyl)-5-imidazolyl-2-pyridyl]amino}ethyl)amino]pyridine-3-carbonitrile [CT 99025]” was tested. Which “ischemic area (percent injury of the ipsilateral hemisphere) versus vehicle control” value did it give?
**A.** The value was “substantially reduced”.
